According to publication PMC5218480 (PLoS ONE, 2017):

Test system: MV-4-11 cells
Experiment: Gene expression microarray analysis (Affymetrix PrimeView) and GSEA
Assay type: cell-based, human
Design: RFU PODN (11730768_x_at) / Fold change /veh PODN (11730768_x_at) / RFU LINC00158 (11744669_a_at) / Fold change /veh LINC00158 (11744669_a_at) / RFU DUSP10 (11751237_a_at) / Fold change /veh DUSP10 (11751237_a_at) / RFU ID3 (11757404_x_at) / Fold change /veh ID3 (11757404_x_at) / RFU PLEKHG5 (11737974_s_at) / Fold change /veh PLEKHG5 (11737974_s_at) / RFU LRRC4B (11730491_at) / Fold change /veh LRRC4B (11730491_at) / RFU GIMAP4 (11747438_a_at) / Fold change /veh GIMAP4 (11747438_a_at) / RFU KRT8 (11758183_x_at) / Fold change /veh KRT8 (11758183_x_at) / RFU CNN1 (11734310_a_at) / Fold change /veh CNN1 (11734310_a_at) / RFU VPS37D (11726825_at) / Fold change /veh VPS37D (11726825_at) / RFU C10orf10 (11716522_x_at) / Fold change /veh C10orf10 (11716522_x_at) / RFU KIR2DL2 /// KIR2DL4 /// KIR2DL5A /// KIR2DL5B /// KIR2DS1 /// KIR2DS2 /// KIR2DS3 /// KIR2DS4 /// KIR3DL3 /// KIR3DL3 /// KIR3DS1 (11738374_at) / Fold change /veh KIR2DL2 /// KIR2DL4 /// KIR2DL5A /// KIR2DL5B /// KIR2DS1 /// KIR2DS2 /// KIR2DS3 /// KIR2DS4 /// KIR3DL3 /// KIR3DL3 /// KIR3DS1 (11738374_at) / RFU C1QL1 (11718748_at) / Fold change /veh C1QL1 (11718748_at) / RFU TMPRSS4 (11747572_a_at) / Fold change /veh TMPRSS4 (11747572_a_at) / RFU HAMP (11756126_x_at) / Fold change /veh HAMP (11756126_x_at) / RFU RNFT2 (11725882_a_at) / Fold change /veh RNFT2 (11725882_a_at) / RFU NR4A2 (11747474_a_at) / Fold change /veh NR4A2 (11747474_a_at) / RFU ABCC12 (11746883_a_at) / Fold change /veh ABCC12 (11746883_a_at) / RFU TMEM136 (11760407_x_at) / Fold change /veh TMEM136 (11760407_x_at) / RFU CLDN22 /// WWC2 (11732394_at) / Fold change /veh CLDN22 /// WWC2 (11732394_at) / RFU HLA-DPB1 (11760878_x_at) / Fold change /veh HLA-DPB1 (11760878_x_at) / RFU SPINT1 (11716480_a_at) / Fold change /veh SPINT1 (11716480_a_at) / RFU GAP43 (11754022_s_at) / Fold change /veh GAP43 (11754022_s_at) / RFU A4GNT (11735810_at) / Fold change /veh A4GNT (11735810_at) / RFU PRB3 (11715151_x_at) / Fold change /veh PRB3 (11715151_x_at) / RFU TUBB4B (11761932_at) / Fold change /veh TUBB4B (11761932_at) / RFU CAPN14 (11732068_a_at) / Fold change /veh CAPN14 (11732068_a_at) / RFU TMCC2 (11721928_a_at) / Fold change /veh TMCC2 (11721928_a_at) / RFU IRGQ (11745062_a_at) / Fold change /veh IRGQ (11745062_a_at) / RFU FAM174B (11720279_a_at) / Fold change /veh FAM174B (11720279_a_at) / RFU TMPRSS4 (11748680_a_at) / Fold change /veh TMPRSS4 (11748680_a_at) / RFU FAM212B (11763350_a_at) / Fold change /veh FAM212B (11763350_a_at) / RFU PLEKHG5 (11743358_a_at) / Fold change /veh PLEKHG5 (11743358_a_at) / RFU ZSCAN30 (11745921_a_at) / Fold change /veh ZSCAN30 (11745921_a_at) / RFU CMKLR1 (11741424_a_at) / Fold change /veh CMKLR1 (11741424_a_at) / RFU LOC101060620 /// MAPK8IP1 (11723275_at) / Fold change /veh LOC101060620 /// MAPK8IP1 (11723275_at) / RFU SPTSSB (11747773_x_at) / Fold change /veh SPTSSB (11747773_x_at) / RFU PRSS12 (11739890_at) / Fold change /veh PRSS12 (11739890_at) / RFU BIN1 (11741810_x_at) / Fold change /veh BIN1 (11741810_x_at) / RFU WNT11 (11732464_a_at) / Fold change /veh WNT11 (11732464_a_at) / RFU C10orf10 (11716521_a_at) / Fold change /veh C10orf10 (11716521_a_at) / RFU C5orf56 (11738089_at) / Fold change /veh C5orf56 (11738089_at) / RFU CYB561 (11721691_x_at) / Fold change /veh CYB561 (11721691_x_at) / RFU ANKRD19P (11752326_a_at) / Fold change /veh ANKRD19P (11752326_a_at) / RFU OR2T12 /// OR2T33 /// OR2T8 (11738714_s_at) / Fold change /veh OR2T12 /// OR2T33 /// OR2T8 (11738714_s_at) / RFU VCAN (11748164_a_at) / Fold change /veh VCAN (11748164_a_at) / RFU JSRP1 (11732532_at) / Fold change /veh JSRP1 (11732532_at) / RFU KRTAP10-11 (11738290_x_at) / Fold change /veh KRTAP10-11 (11738290_x_at) / RFU MYO3A (11730013_a_at) / Fold change /veh MYO3A (11730013_a_at) / RFU EBF3 (11725865_a_at) / Fold change /veh EBF3 (11725865_a_at) / RFU CAMK2N1 (11719241_x_at) / Fold change /veh CAMK2N1 (11719241_x_at) / RFU C5orf56 (11738088_a_at) / Fold change /veh C5orf56 (11738088_a_at) / RFU OLFML3 (11715873_a_at) / Fold change /veh OLFML3 (11715873_a_at) / RFU LOC100653217 /// NTM (11731650_a_at) / Fold change /veh LOC100653217 /// NTM (11731650_a_at) / RFU MAPK11 (11762145_a_at) / Fold change /veh MAPK11 (11762145_a_at) / RFU FIZ1 (11724087_x_at) / Fold change /veh FIZ1 (11724087_x_at) / RFU OASL (11726364_x_at) / Fold change /veh OASL (11726364_x_at) / RFU SOX15 (11748057_x_at) / Fold change /veh SOX15 (11748057_x_at) / RFU CD79A (11719716_a_at) / Fold change /veh CD79A (11719716_a_at) / RFU HIST1H1D (11736915_at) / Fold change /veh HIST1H1D (11736915_at) / RFU CASKIN2 (11723855_a_at) / Fold change /veh CASKIN2 (11723855_a_at) / RFU LOC730098 (11760151_x_at) / Fold change /veh LOC730098 (11760151_x_at) / RFU OR4N2 (11742367_at) / Fold change /veh OR4N2 (11742367_at) / RFU PRRT2 (11749266_a_at) / Fold change /veh PRRT2 (11749266_a_at) / RFU SNX32 (11753110_a_at) / Fold change /veh SNX32 (11753110_a_at) / RFU CDHR5 (11726645_a_at) / Fold change /veh CDHR5 (11726645_a_at) / RFU RCAN1 (11760418_a_at) / Fold change /veh RCAN1 (11760418_a_at) / RFU FAM167A (11723789_a_at) / Fold change /veh FAM167A (11723789_a_at) / RFU FAM26E (11764081_at) / Fold change /veh FAM26E (11764081_at) / RFU ISYNA1 (11749810_s_at) / Fold change /veh ISYNA1 (11749810_s_at) / RFU ACY1 (11761880_at) / Fold change /veh ACY1 (11761880_at) / RFU 11764098_at / Fold change /veh 11764098_at / RFU SAMD14 (11745864_x_at) / Fold change /veh SAMD14 (11745864_x_at) / RFU NPB (11741838_a_at) / Fold change /veh NPB (11741838_a_at) / RFU TMPRSS6 (11731388_a_at) / Fold change /veh TMPRSS6 (11731388_a_at) / RFU KRTAP10-2 (11738614_at) / Fold change /veh KRTAP10-2 (11738614_at) / RFU ARHGAP8 /// PRR5-ARHGAP8 (11727945_x_at) / Fold change /veh ARHGAP8 /// PRR5-ARHGAP8 (11727945_x_at) / RFU KRTAP5-7 /// NADSYN1 (11734609_at) / Fold change /veh KRTAP5-7 /// NADSYN1 (11734609_at) / RFU RASL12 (11751679_a_at) / Fold change /veh RASL12 (11751679_a_at) / RFU CDKN2B (11736163_a_at) / Fold change /veh CDKN2B (11736163_a_at) / RFU PRF1 (11729649_at) / Fold change /veh PRF1 (11729649_at) / RFU, ZNF638 /// ZNF638-IT1 / Fold change vs veh, ZNF638 /// ZNF638-IT1 / RFU, PANK3 / Fold change vs veh, PANK3 / RFU, SH3YL1 / Fold change vs veh, SH3YL1 / RFU, ZEB2 / Fold change vs veh, ZEB2 / RFU, NRIP1 / Fold change vs veh, NRIP1 / RFU, PTTG1IP / Fold change vs veh, PTTG1IP / RFU, CAPN2 / Fold change vs veh, CAPN2 / RFU, MED14 / Fold change vs veh, MED14 / RFU, SNORA58 / Fold change vs veh, SNORA58 / RFU, C1orf63 / Fold change vs veh, C1orf63 / RFU, LRRFIP1 / Fold change vs veh, LRRFIP1 / RFU, NDUFAF7 / Fold change vs veh, NDUFAF7 / RFU, SLC12A2 / Fold change vs veh, SLC12A2 / RFU, IBTK / Fold change vs veh, IBTK / RFU, ESF1 / Fold change vs veh, ESF1 / Fold change vs veh, TMEM50B / RFU, TAOK1 / Fold change vs veh, TAOK1 / RFU, ACBD3 / Fold change vs veh, ACBD3 / RFU, TMA16 / Fold change vs veh, TMA16 / RFU, RWDD3 / Fold change vs veh, RWDD3 / RFU, BCAT1 / Fold change vs veh, BCAT1 / RFU, EDEM3 / Fold change vs veh, EDEM3 / RFU, TMEM33 / Fold change vs veh, TMEM33 / RFU, WDR75 / Fold change vs veh, WDR75 / RFU, AHCTF1 / Fold change vs veh, AHCTF1 / RFU, TFRC / Fold change vs veh, TFRC / RFU, ZDHHC17 / Fold change vs veh, ZDHHC17 / RFU, NOM1 / Fold change vs veh, NOM1 / RFU, ARL8B / Fold change vs veh, ARL8B / RFU, ZBTB11 / Fold change vs veh, ZBTB11 / RFU, TAMM41 / Fold change vs veh, TAMM41 / RFU, KIAA1704 /// LOC100996395 / Fold change vs veh, KIAA1704 /// LOC100996395 / RFU, ING1 / Fold change vs veh, ING1 / RFU, TRMT61B / Fold change vs veh, TRMT61B / RFU, FUBP3 / Fold change vs veh, FUBP3 / RFU, TP53 / Fold change vs veh, TP53 / RFU, TNKS2 / Fold change vs veh, TNKS2 / RFU, ZFP14 / Fold change vs veh, ZFP14 / RFU, ACTR2 / Fold change vs veh, ACTR2 / RFU, PPP3R1 / Fold change vs veh, PPP3R1 / RFU, PIK3R1 / Fold change vs veh, PIK3R1 / RFU, HNRNPA1 / Fold change vs veh, HNRNPA1 / RFU, RNF170 / Fold change vs veh, RNF170 / RFU, ZNF28 / Fold change vs veh, ZNF28 / RFU, RNGTT / Fold change vs veh, RNGTT / RFU, OGT / Fold change vs veh, OGT / RFU, BRD1 / Fold change vs veh, BRD1 / RFU, MARS / Fold change vs veh, MARS / RFU, ZNF655 / Fold change vs veh, ZNF655 / RFU, FAHD1 / Fold change vs veh, FAHD1 / RFU, BDP1 / Fold change vs veh, BDP1 / RFU, LRRCC1 / Fold change vs veh, LRRCC1 / RFU, ARID1A / Fold change vs veh, ARID1A / RFU, ZNF146 / Fold change vs veh, ZNF146 / RFU, ZNF330 / Fold change vs veh, ZNF330 / RFU, GPN3 / Fold change vs veh, GPN3 / RFU, C9orf123 / Fold change vs veh, C9orf123 / RFU, N4BP2L2 / Fold change vs veh, N4BP2L2 / RFU, ARFIP1 / Fold change vs veh, ARFIP1 / RFU, FAM179B / Fold change vs veh, FAM179B / RFU, BCL10 / Fold change vs veh, BCL10 / RFU, UHRF1BP1L / Fold change vs veh, UHRF1BP1L / RFU, BET1 / Fold change vs veh, BET1 / RFU, CNOT2 / Fold change vs veh, CNOT2 / RFU, ZNF268 / Fold change vs veh, ZNF268 / Fold change vs veh, ZNF507 / RFU, DGCR2 / Fold change vs veh, DGCR2 / RFU, WDSUB1 / Fold change vs veh, WDSUB1 / Fold change vs veh, HSP90B1 /// MIR3652 / RFU, ADSS / Fold change vs veh, ADSS / RFU, GK / Fold change vs veh, GK / RFU, ZNF148 / Fold change vs veh, ZNF148 / RFU, TAF9 / Fold change vs veh, TAF9 / RFU, SLC1A5 / Fold change vs veh, SLC1A5 / RFU, SLMO2 / Fold change vs veh, SLMO2 / RFU, ABCC4 / Fold change vs veh, ABCC4 / RFU, LOC101060439 /// RAP1B / Fold change vs veh, LOC101060439 /// RAP1B / RFU, RFX7 / Fold change vs veh, RFX7 / RFU, GTPBP10 / Fold change vs veh, GTPBP10 / RFU, CNEP1R1 / Fold change vs veh, CNEP1R1 / RFU, BIVM-ERCC5 /// ERCC5 / Fold change vs veh, BIVM-ERCC5 /// ERCC5 / RFU, ILF3 / Fold change vs veh, ILF3 / RFU 11762660_at / Fold change /veh 11762660_at / RFU VCAN (11757783_s_at) / Fold change /veh VCAN (11757783_s_at) / RFU DDX43 (11728927_at) / Fold change /veh DDX43 (11728927_at) / RFU KRT8 (11758188_x_at) / Fold change /veh KRT8 (11758188_x_at) / RFU NKD1 (11759106_at) / Fold change /veh NKD1 (11759106_at) / RFU SRD5A1 (11742802_a_at) / Fold change /veh SRD5A1 (11742802_a_at) / RFU TPSAB1 /// TPSB2 (11721975_s_at) / Fold change /veh TPSAB1 /// TPSB2 (11721975_s_at) / RFU GSTM3 (11746129_a_at) / Fold change /veh GSTM3 (11746129_a_at) / RFU IL23R (11737362_x_at) / Fold change /veh IL23R (11737362_x_at) / RFU TMEM51 (11727254_a_at) / Fold change /veh TMEM51 (11727254_a_at) / RFU PIWIL2 (11732686_x_at) / Fold change /veh PIWIL2 (11732686_x_at) / RFU ORM1 (11744905_x_at) / Fold change /veh ORM1 (11744905_x_at) / RFU CCDC152 (11743942_at) / Fold change /veh CCDC152 (11743942_at) / RFU ECM1 (11717891_a_at) / Fold change /veh ECM1 (11717891_a_at) / RFU IL23R (11748794_a_at) / Fold change /veh IL23R (11748794_a_at) / RFU TNFAIP8L3 (11732012_x_at) / Fold change /veh TNFAIP8L3 (11732012_x_at) / RFU MBOAT4 (11741988_at) / Fold change /veh MBOAT4 (11741988_at) / RFU 11764193_at / Fold change /veh 11764193_at / RFU TMEM53 (11763286_at) / Fold change /veh TMEM53 (11763286_at) / RFU MAGEB2 (11727129_at) / Fold change /veh MAGEB2 (11727129_at) / RFU TMEM200A (11744735_a_at) / Fold change /veh TMEM200A (11744735_a_at) / RFU CCDC152 (11751479_a_at) / Fold change /veh CCDC152 (11751479_a_at) / RFU FAM211A (11726209_a_at) / Fold change /veh FAM211A (11726209_a_at) / RFU RGS16 (11746705_a_at) / Fold change /veh RGS16 (11746705_a_at) / RFU VCAN (11755009_s_at) / Fold change /veh VCAN (11755009_s_at) / RFU RHOB (11743442_s_at) / Fold change /veh RHOB (11743442_s_at) / RFU RGS16 (11720943_a_at) / Fold change /veh RGS16 (11720943_a_at) / RFU RGS16 (11720944_at) / Fold change /veh RGS16 (11720944_at) / RFU, VPS4B / Fold change vs veh, VPS4B / RFU, CREB1 / Fold change vs veh, CREB1 / RFU, DNAJC13 / Fold change vs veh, DNAJC13 / RFU, GNAQ / Fold change vs veh, GNAQ / RFU, CDK5R1 / Fold change vs veh, CDK5R1 / RFU, ZRANB3 / Fold change vs veh, ZRANB3 / RFU, CUL4A / Fold change vs veh, CUL4A / RFU, CCNY / Fold change vs veh, CCNY / RFU, UFL1 / Fold change vs veh, UFL1 / RFU, COG3 / Fold change vs veh, COG3 / RFU, DIAPH2 / Fold change vs veh, DIAPH2 / RFU, SKA2 / Fold change vs veh, SKA2 / RFU, AFF3 / Fold change vs veh, AFF3 / RFU, LMF1 / Fold change vs veh, LMF1 / RFU, IPO11 / Fold change vs veh, IPO11 / RFU, DFFB / Fold change vs veh, DFFB / RFU, FOXP1 / Fold change vs veh, FOXP1 / RFU, CARD8 / Fold change vs veh, CARD8 / RFU, STRN3 / Fold change vs veh, STRN3 / RFU, ADK / Fold change vs veh, ADK / RFU, RASSF2 / Fold change vs veh, RASSF2 / RFU, WIPF1 / Fold change vs veh, WIPF1 / RFU, LARP1B / Fold change vs veh, LARP1B / RFU, RASA1 / Fold change vs veh, RASA1 / RFU, RB1 / Fold change vs veh, RB1 / RFU, PPFIA1 / Fold change vs veh, PPFIA1 / RFU, MAT2A / Fold change vs veh, MAT2A / RFU, CCT5 / Fold change vs veh, CCT5 / RFU, WDR92 / Fold change vs veh, WDR92 / RFU, CUX1 / Fold change vs veh, CUX1 / RFU, TTC7A / Fold change vs veh, TTC7A / RFU, TMEM135 / Fold change vs veh, TMEM135 / RFU, DEPTOR / Fold change vs veh, DEPTOR / RFU, CPM / Fold change vs veh, CPM / RFU, DNAJB6 / Fold change vs veh, DNAJB6 / RFU, CACNA2D3 / Fold change vs veh, CACNA2D3 / RFU, DTX4 / Fold change vs veh, DTX4 / RFU, TFCP2 / Fold change vs veh, TFCP2 / RFU, GMCL1 /// GMCL1P1 / Fold change vs veh, GMCL1 /// GMCL1P1 / RFU, AEBP2 / Fold change vs veh, AEBP2 / RFU, SNHG1 /// SNORD22 /// SNORD25 /// SNORD26 /// SNORD27 /// SNORD28 /// SNORD29 /// SNORD31 / Fold change vs veh, SNHG1 /// SNORD22 /// SNORD25 /// SNORD26 /// SNORD27 /// SNORD28 /// SNORD29 /// SNORD31 / Fold change (Aza/veh), C12orf56 (ProbeSet 11735607_a_at) / Fold change (ACY-1035/veh), C12orf56 (ProbeSet 11735607_a_at) / Fold change (Aza/veh), FGFR1OP (ProbeSet 11751329_s_at) / Fold change (ACY-1035/veh), FGFR1OP (ProbeSet 11751329_s_at) / Fold change (Aza/veh), VPS36 (ProbeSet 11739960_a_at) / Fold change (ACY-1035/veh), VPS36 (ProbeSet 11739960_a_at) / RFU SYPL1 (11715823_x_at) / Fold change /veh SYPL1 (11715823_x_at) / RFU IGFBP7 (11715501_s_at) / Fold change /veh IGFBP7 (11715501_s_at) / RFU REEP3 (11722064_at) / Fold change /veh REEP3 (11722064_at) / RFU IGLL1 (11728026_x_at) / Fold change /veh IGLL1 (11728026_x_at): dose or concentration left out as unconfirmed
Conditions: ProbeSet 11740528_a_at; LIST D

## Nc1ccc(-c2cccs2)cc1NC(=O)c1ccc2c(c1)cc(C1CC1)n2CCN1CCOCC1 [ACY-1035]
  RFU, AFF3: 703.28 RFU
